Data set [1] can be described thus: Effect of amount added of iodide ions on oxidation-reduction potential (ORP). The data set is classed as physicochemical. The following applies: sodium hypochlorite 1 mg/L as Cl2, stirred 3 minutes after potassium iodide addition. As for the experimental part:
A sodium hypochlorite aqueous solution was added to ultrapure water prepared with a prescribed pH value in sufficient amount to provide 1 mg/L as Cl2, potassium iodide was then added to the solution and stirred for 3 minutes, and the oxidation-reduction potential (ORP) was then measured. […] The oxidation-reduction potential (ORP) was measured using an ORP meter (RM-2oP) manufactured by DKK-TOA Corporation.

The nature of data set [2]: Effects on membrane: flux and EC rejection rate before/after contact with agent.
Description: The effects on a reverse osmosis membrane were evaluated for the case where the mixture of the slime-suppressing auxiliary agent for a reverse osmosis membrane (potassium iodide aqueous solution (KI)) and sodium hypochlorite (NaClO) from the example was used.
The flux and EC rejection rate of the reverse osmosis membrane are measured prior to contact with the agent • 2. The agent is brought into contact with the reverse osmosis membrane at a theoretical value for the CT value of 30,000 (mg/L as Cl^2×h) • 3. The flux and EC rejection rate of the reverse osmosis membrane are measured following the contact with the agent
The flux was calculated by dividing the permeate volume per prescribed time period at 25° C. by the membrane surface area and the operating pressure. The EC rejection rate was determined by measuring the conductivity of the permeate and the conductivity of the feed water using a conductivity measurement apparatus, with the EC rejection rate calculated as (100−[permeate conductivity/feed water conductivity]×100).

Experimental findings from patent publication US20260001792A1, “METHOD FOR PRODUCING SLIME-SUPPRESSING AUXILIARY AGENT FOR REVERSE OSMOSIS MEMBRANE, SLIME-SUPPRESSING AUXILIARY AGENT FOR REVERSE OSMOSIS MEMBRANE, AND WATER TREATMENT METHOD” (ORGANO CORPORATION, priority 2022, published 2026) are described below.

Structures are written as SMILES.

`[Na+].[O-]Cl` [Reference Example 10, sodium hypochlorite]: in data set [1] (pH 7), the ORP worked out at 638 mV.
`OCl` [NaClO, sodium hypochlorite]: the Flux after contact in data set [2] (ESPA2, pH 7, after contact at CT value 30,000) is 4.1 m/(d · MPa). In addition, the Flux before contact in data set [2] (ESPA2, pH 7, baseline before contact with agent) is recorded as 2.0 m/(d · MPa).
With `[Na+].[O-]Cl` [Reference Example 12, sodium hypochlorite], in data set [1] (pH 10), the ORP is 359 mV.
In data set [1] (pH 4), `[Na+].[O-]Cl` [Reference Example 8, sodium hypochlorite] registered an ORP of 837 mV.
